Assay results as given in patent US10076549B2, “Gastric health supplement and methods thereof” (SmartPak Equine LLC, priority 2012, dated 2018).

How the values were obtained:
[1] = test system: nonglandular gastric ulcers; test: 42-day 2-period crossover equine health study: gastroscopic nonglandular gastric ulcer number (NGN) and severity (NGS) scores; type: in vivo, horse; conditions: by Day 14
Experimental: Eight healthy Thoroughbred and Thoroughbred-cross horses from the Equine Health Studies Program (EHSP) herd were used in this study. The study was performed as a 42-day 2-period crossover using a treatment group (n=8) and an untreated control (n=8).
All horses were stall-confined and fed mixed grass hay and sweet feed (OMOLENE® 100; Gray Summit, Mo.). Horses were assigned to the two treatment groups stratified by gastric ulcer score recorded on day 1 of period 1. Treated horses were fed with a Supplement composition of Example 1 above (40 g, twice daily) added to the sweet feed and control horses received no feed supplement.
Prior to beginning the study, all horses underwent physical examination. From Day 1 to Day 14, all horses were treated with omeprazole (GASTROGARD® paste, Merial Limited, Duluth, Ga.; 4 mg/kg, orally q24 h), then omeprazole was discontinued for the remainder of the study. All the horses remained stall-confined. From Day 28 to Day 35, all the horses underwent feed-deprivation, where they were muzzled and deprived of feed for 24 hours and then fed for 24 hours for a total of 96 hours to induce ulcers.
During the feed-deprivation days, the horses were fed 10% of their normal sweet feed, and the treated horses received the Supplement composition of Example 1 above (SMARTPAK® Equine, Plymouth, Mass.). From Day 35 to Day 42, all the horses returned to their normal diet to allow for recovery. The timelines of the events occurring during the period of the 42-day study were depicted in FIG. 1.
(§1) Gastroscopic examinations were performed on all the horses on Day 0, 14, 28, 35 and 42 and nonglandular gastric ulcer number (NGN) and severity (NGS) scores were assigned by the PI (FMA) who was masked to treatment (FIG. 2) (MacAllister et al. 1997). During gastroscopy, gastric juice was aspirated and pH measured.

[2] = Gastric juice pH aspirated during gastroscopy, 42-day crossover study; type: in vivo, horse; conditions: by Day 14, omeprazole 4 mg/kg orally q24 h
Experimental: as §1
Gastric juice pH values can be determined as follows: gastric juice of a subject animal is aspirated through the biopsy channel of an endoscope and pH is measured at specified time intervals, particularly 1 hour before and then 1 hour after administration of a therapeutic agent or Supplement composition as disclosed herein. Gastric juice pH values can be compared between the times.

equine ulcers = conditions: background; cited from earlier work
[3] = omeprazole paste 4 mg/kg orally q24 h Day 1-14

SMILES: COc1ccc2nc([S+]([O-])Cc3ncc(C)c(OC)c3C)[nH]c2c1 (stereo not drawn) [omeprazole]
- horses with healed gastric ulcers in each study group ([1]; omeprazole 4 mg/kg orally q24 h, 6/8 horses): 75%
- NGN score [1, 3]: significantly decreased
- NGS score [1, 3]: significantly decreased
- gastric juice pH [2]: increased significantly
- gastric juice pH value in horses (equine ulcers): increased
- treating equine ulcers (equine ulcers): effective
